Measured values as given in US6358885B1, “Substituted phenylheterocyclic herbicides” (Mississippi State University, priority 1992, dated 2002).

Columns and labels:
rape = test: Test B preemergence/postemergence greenhouse plant response rating 0 to 10; assay type: in vivo, Brassica napus; conditions: 0 to 10 scale
In short: (§1)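 Test chemicals, dissolved in a non-phytotoxic solvent, were applied to soil at planting and, at the same time, over foliage of seedlings at the one to four leaf stage.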

wild buckwheat = test: Test C preemergence/postemergence greenhouse plant response rating 0 to 100; assay type: in vivo, Polygonum convolvulus; conditions: POSTEMERGENCE
In short: (§2)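 Compounds in non-phytotoxic solvent applied preemergence to sandy loam one day after planting, postemergence at the 1–4 leaf stage, or to ~2.5 cm floodwater over silt loam.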

crabgrass = test: Test B preemergence/postemergence greenhouse plant response rating 0 to 10; assay type: in vivo, Digitaria spp.; conditions: 0 to 10 scale
In short: as §1

wild oat = test: Test C preemergence/postemergence greenhouse plant response rating 0 to 100; assay type: in vivo, Avena fatua; conditions: POSTEMERGENCE
In short: as §2

wheat = test: as above; assay type: in vivo, Triticum aestivum; conditions: POSTEMERGENCE
In short: as §2

morningglory = test: as above; assay type: in vivo, Ipomoea hederacea; conditions: POSTEMERGENCE
In short: as §2

rice = test: Test C flood test plant response rating 0 to 100; assay type: in vivo, Oryza sativa
In short: as §2

giant foxtail = test: Test B preemergence/postemergence greenhouse plant response rating 0 to 10; assay type: in vivo, Setaria faberii; conditions: 0 to 10 scale
In short: as §1

purple nutsedge = test: as above; assay type: in vivo, Cyperus rotundus; conditions: 0 to 10 scale
In short: as §1

barnyardgrass = test: as above; assay type: in vivo, Echinochloa crus-galli; conditions: 0 to 10 scale
In short: as §1

corn = test: Test C preemergence/postemergence greenhouse plant response rating 0 to 100; assay type: in vivo, Zea mays; conditions: POSTEMERGENCE
In short: as §2

blackgrass = test: Test B preemergence/postemergence greenhouse plant response rating 0 to 10; assay type: in vivo, Alopecurus myosuroides; conditions: 0 to 10 scale
In short: as §1

## COCN1C(=O)COc2cc(F)c(-c3nn4c(c3Cl)CCCC4)cc21 [Compound 55]
rape; POSTEMERGENCE, Rate 10 g/ha
  Plant response rating, Rape: 10
rape; POSTEMERGENCE, Rate 50 g/ha
  Plant response rating, Rape: 10
rape; PREEMERGENCE, Rate 50 g/ha
  Plant response rating, Rape: 6
Wild buckwheat; 62 g/ha, 0 to 100 scale
  Plant response rating, Wild buckwheat: 100
Wild buckwheat; Rate 1 g/ha
  Plant response rating (0 to 100), Wild buckwheat: 60
Wild buckwheat; Rate 4 g/ha
  Plant response rating (0 to 100), Wild buckwheat: 100
Wild buckwheat; Rate 16 g/ha
  Plant response rating (0 to 100), Wild buckwheat: 100
crabgrass; POSTEMERGENCE, Rate 10 g/ha
  Plant response rating, Crabgrass: 2
crabgrass; POSTEMERGENCE, Rate 50 g/ha
  Plant response rating, Crabgrass: 3
crabgrass; PREEMERGENCE, Rate 10 g/ha
  Plant response rating, Crabgrass: 0
crabgrass; PREEMERGENCE, Rate 50 g/ha
  Plant response rating, Crabgrass: 6
Wild oat; 62 g/ha, 0 to 100 scale
  Plant response rating, Wild oat: 60
Wild oat; Rate 1 g/ha
  Plant response rating (0 to 100), Wild oat: 20
Wild oat; Rate 4 g/ha
  Plant response rating (0 to 100), Wild oat: 30
Wild oat; Rate 16 g/ha
  Plant response rating (0 to 100), Wild oat: 40
wheat; 62 g/ha, 0 to 100 scale
  Plant response rating, Wheat: 60
wheat; Rate 1 g/ha
  Plant response rating (0 to 100), Wheat: 30
wheat; Rate 4 g/ha
  Plant response rating (0 to 100), Wheat: 40
wheat; Rate 16 g/ha
  Plant response rating (0 to 100), Wheat: 50
morningglory; 62 g/ha, 0 to 100 scale
  Plant response rating, Morningglory: 100
morningglory; Rate 1 g/ha
  Plant response rating (0 to 100), Morningglory: 80
morningglory; Rate 4 g/ha
  Plant response rating (0 to 100), Morningglory: 100
morningglory; Rate 16 g/ha
  Plant response rating (0 to 100), Morningglory: 100
rice; POSTEMERGENCE section, flood test, Rate 1 g/ha
  Plant response rating (0 to 100), Rice Japonica: 10
rice; POSTEMERGENCE section, flood test, Rate 4 g/ha
  Plant response rating (0 to 100), Rice Japonica: 30
rice; Rate 16 g/ha, under POSTEMERGENCE head (flood test species)
  Plant response rating (0 to 100), Rice Japonica: 70
rice; flood test species listed under POSTEMERGENCE, 62 g/ha, 0 to 100 scale
  Plant response rating Rice Japonica: 90
Giant foxtail; POSTEMERGENCE, Rate 10 g/ha
  Plant response rating, Giant foxtail: 4
Giant foxtail; POSTEMERGENCE, Rate 50 g/ha
  Plant response rating, Giant foxtail: 6
Giant foxtail; PREEMERGENCE, Rate 10 g/ha
  Plant response rating, Giant foxtail: 2
Giant foxtail; PREEMERGENCE, Rate 50 g/ha
  Plant response rating, Giant foxtail: 8
Purple nutsedge; POSTEMERGENCE, Rate 10 g/ha
  Plant response rating, Nutsedge: 2
Purple nutsedge; POSTEMERGENCE, Rate 50 g/ha
  Plant response rating, Nutsedge: 2
Purple nutsedge; PREEMERGENCE, Rate 50 g/ha
  Plant response rating, Nutsedge: 0
barnyardgrass; POSTEMERGENCE, Rate 10 g/ha
  Plant response rating, Barnyardgrass: 2
barnyardgrass; POSTEMERGENCE, Rate 50 g/ha
  Plant response rating, Barnyardgrass: 6
barnyardgrass; PREEMERGENCE, Rate 10 g/ha
  Plant response rating, Barnyardgrass: 0
barnyardgrass; PREEMERGENCE, Rate 50 g/ha
  Plant response rating, Barnyardgrass: 6
corn; 62 g/ha, 0 to 100 scale
  Plant response rating, Corn: 50
corn; Rate 1 g/ha
  Plant response rating (0 to 100), Corn: 30
corn; Rate 4 g/ha
  Plant response rating (0 to 100), Corn: 40
corn; Rate 16 g/ha
  Plant response rating (0 to 100), Corn: 50
blackgrass; POSTEMERGENCE, Rate 10 g/ha
  Plant response rating, Blackgrass: 5
blackgrass; POSTEMERGENCE, Rate 50 g/ha
  Plant response rating, Blackgrass: 7
blackgrass; PREEMERGENCE, Rate 10 g/ha
  Plant response rating, Blackgrass: 3
blackgrass; PREEMERGENCE, Rate 50 g/ha
  Plant response rating, Blackgrass: 7
